Source: patent US20250214977A1, “STAT6 INHIBITORS AND USES THEREOF” (Kymera Therapeutics, Inc., priority 2024, published 2025)
pIC50: −log10 of the molar value.

Tested on: Phosphorylation of STAT6 in human A549 cells
Experiment: Phosphorylated STAT6 (pSTAT6) flow cytometry assay in human A549 cells
Type: cell-based
Details: read-out: STAT6 IL4 pSTAT6 assay in A549 cells: Average IC50
Source text: Example 3. Phosphorylated STAT6 (pSTAT6) Flow Cytometry Assay in Human A549 Cells
Phosphorylation of STAT6 in human A549 cells was quantitatively measured using flow cytometry technology.

Row | Structure (SMILES) | pIC50
1 | COc1ccccc1-c1cc(C2=CCCN(C(=O)CCn3ccnn3)C2)c(F)c2[nH]c(C(=O)N3CCN(c4ccc(F)cc4OC)CC3)cc12 [Example I-431] | > 7.00
2 | COc1ccccc1-c1cc(C2=CCCN(C(=O)CCn3ccnn3)C2)c(F)c2[nH]c(C(=O)N3CCN(c4c(F)cc(F)cc4OC)CC3)cc12 [Example I-432] | > 7.00
3 | COc1ccncc1-c1cc(C2=CCCN(C(=O)CCn3ccnn3)C2)c(F)c2[nH]c(C(=O)N3CCN(c4nc(C)ccc4OC)CC3)cc12 [Example I-433] | < 4.00
4 | COc1ccncc1-c1cc(C2=CCCN(C(=O)CCn3ccnn3)C2)c(F)c2[nH]c(C(=O)N3CC=C(c4ccc(F)c(OC)n4)CC3)cc12 [Example I-434] | > 7.00
5 | COc1cnccc1-c1cc(C2=CCCN(C(=O)CCn3ccnn3)C2)c(F)c2[nH]c(C(=O)N3CCN(c4ncc(C(F)(F)F)cc4OC)CC3)cc12 [Example I-435] | > 7.00
6 | COc1cnc(N2CCN(C(=O)c3cc4c(-c5ccncc5OC)cc(C5=CCCN(C(=O)CCn6ccnn6)C5)c(F)c4[nH]3)CC2)c(OC)c1 [Example I-436] | > 7.00
7 | COc1cnc(N2CCN(C(=O)c3cc4c(-c5cnccc5OC)cc(C5=CCCN(C(=O)CCn6ccnn6)C5)c(F)c4[nH]3)CC2)c(OC)c1 [Example I-437] | > 7.00
8 | COc1ccncc1-c1cc(C2=CCCN(C(=O)CCn3ccnn3)C2)c(F)c2[nH]c(C(=O)N3CCN(c4ncc(C5CC5)cc4OC)CC3)cc12 [Example I-438] | > 7.00
9 | CNc1cccnc1N1CCN(C(=O)c2cc3c(-c4ccccc4OC)cc(C4=CCCN(C(=O)CCn5ccnn5)C4)c(F)c3[nH]2)CC1 [Example I-439] | > 7.00
10 | COc1cccc(N2CCN(C(=O)c3cc4c(-c5cnccc5OC)cc(C5=CCCN(C(=O)CCn6ccnn6)C5)c(F)c4[nH]3)CC2)n1 [Example I-440] | > 7.00
11 | COc1ccncc1-c1cc(C2=CCCN(C(=O)CCn3ccnn3)C2)c(F)c2[nH]c(C(=O)N3CCN(c4nccnc4OC)CC3)cc12 [Example I-441] | > 7.00
12 | COc1ccncc1-c1cc(C2=CCCN(C(=O)CCn3ccnn3)C2)c(F)c2[nH]c(C(=O)N3CC=C(c4ncc(F)cc4OC)CC3)cc12 [Example I-442] | > 7.00
13 | COc1cccc(C2=CCN(C(=O)c3cc4c(-c5cnccc5OC)cc(C5=CCCN(C(=O)CCn6ccnn6)C5)c(F)c4[nH]3)CC2)n1 [Example I-443] | > 7.00
14 | COc1ccncc1-c1cc(C2=CCCN(C(=O)CCn3ccnn3)C2)c(F)c2[nH]c(C(=O)N3CCN(c4ccc(F)c(OC)n4)CC3)cc12 [Example I-444] | > 7.00
15 | COc1ccncc1-c1cc(C2=CCCN(C(=O)CCn3ccnn3)C2)c(F)c2[nH]c(C(=O)N3CCN(c4ncc(C(F)(F)F)cc4OC)CC3)cc12 [Example I-445] | > 7.00
16 | COc1cc(C(F)(F)F)cnc1N1CCN(C(=O)c2cc3c(-c4cnc5ccccc5c4OC)cc(C4=CCCN(C(=O)CCn5ccnn5)C4)c(F)c3[nH]2)CC1 [Example I-446] | 5.00 to 6.00
17 | COc1c(-c2cc(C3=CCCN(C(=O)CCn4ccnn4)C3)c(F)c3[nH]c(C(=O)N4CCN(c5ncccc5OC5CC5)CC4)cc23)cnc2ccccc12 [Example I-447] | > 7.00
18 | COc1ccccc1N1CCN(C(=O)c2cc3c(-c4cnc5ccccc5c4OC)cc(C4=CCCN(C(=O)CCn5ccnn5)C4)c(F)c3[nH]2)CC1 [Example I-448] | > 7.00
19 | COc1c(-c2cc(C3=CCCN(C(=O)CCn4ccnn4)C3)c(F)c3[nH]c(C(=O)N4CCN(C5CC5)CC4)cc23)cnc2ccccc12 [Example I-449] | > 7.00
20 | COc1ccncc1-c1cc(C2=CCCN(C(=O)CCn3ccnn3)C2)c(F)c2[nH]c(C(=O)N3CCN(c4ccc(Cl)cc4OC)CC3)cc12 [Example I-450] | > 7.00
21 | COc1cccnc1C1=CCN(C(=O)c2cc3c(-c4cnc5ccccc5c4OC)cc(C4=CCCN(C(=O)CCn5ccnn5)C4)c(F)c3[nH]2)CC1 [Example I-451] | > 7.00
22 | COc1ccncc1-c1cc(C2=CCCN(C(=O)CCn3ccnn3)C2)c(F)c2[nH]c(C(=O)N3CC=C(c4ncccc4OC)CC3)cc12 [Example I-452] | < 4.00
23 | CCc1cnc(N2CCN(C(=O)c3cc4c(-c5cnccc5OC)cc(C5=CCCN(C(=O)CCn6ccnn6)C5)c(F)c4[nH]3)CC2)c(OC)c1 [Example I-453] | > 7.00
24 | COc1ccncc1-c1cc(C2=CCCN(C(=O)CCn3ccnn3)C2)c(F)c2[nH]c(C(=O)N3CCN(c4ncc(C(C)C)cc4OC)CC3)cc12 [Example I-454] | > 7.00
25 | COc1ccncc1-c1cc(C2=CCCN(C(=O)CCn3ccnn3)C2)c(F)c2[nH]c(C(=O)N3CCN(c4ncccc4OC4CC4)CC3)cc12 [Example I-456] | > 7.00
26 | COc1cnccc1-c1cc(C2=CCCN(C(=O)CCn3ccnn3)C2)c(F)c2[nH]c(C(=O)N3CCN(c4ncc(Cl)cc4OC)CC3)cc12 [Example I-457] | > 7.00
27 | COc1ccncc1-c1cc(C2=CCCN(C(=O)CCn3ccnn3)C2)c(F)c2[nH]c(C(=O)N3CCN(c4ncc(Cl)cc4OC)CC3)cc12 [Example I-458] | > 7.00
28 | COc1cc(F)ccc1-c1cc(C2=CCCN(C(=O)CCn3ccnn3)C2)c(F)c2[nH]c(C(=O)N3CCN(c4ncc(Cl)cc4OC)CC3)cc12 [Example I-459] | > 7.00

Row | Structure (SMILES) | pIC50
29 | COc1cc(Cl)cnc1N1CCN(C(=O)c2cc3c(-c4cccnc4OC)cc(C4=CCCN(C(=O)CCn5ccnn5)C4)c(F)c3[nH]2)CC1 [Example I-460] | > 7.00
30 | COc1cc(Cl)cnc1N1CCN(C(=O)c2cc3c(-c4cc(F)cc(F)c4OC)cc(C4=CCCN(C(=O)CCn5ccnn5)C4)c(F)c3[nH]2)CC1 [Example I-462] | 6.00 to 7.00
31 | COc1ccncc1-c1cc(C2=CCCN(C(=O)CCn3ccnn3)C2)c(F)c2[nH]c(C(=O)N3CCN(c4ccc(C(F)(F)F)cc4OC)CC3)cc12 [Example I-463] | > 7.00
32 | COc1ccccc1-c1cc(C2=CCCN(C(=O)CCn3ccnn3)C2)c(F)c2[nH]c(C(=O)N3Cc4cnn(C)c4C3)cc12 [Example I-464] | > 7.00
33 | COc1ccccc1-c1cc(C2=CCCN(C(=O)CCn3ccnn3)C2)c(F)c2[nH]c(C(=O)N3CCN(c4cnccc4OC)CC3)cc12 [Example I-465] | < 4.00
34 | CCc1ccc(OC)c(N2CCN(C(=O)c3cc4c(-c5cnccc5OC)cc(C5=CCCN(C(=O)CCn6ccnn6)C5)c(F)c4[nH]3)CC2)n1 [Example I-466] | > 7.00
35 | COc1ccncc1-c1cc(C2=CCCN(C(=O)CCn3ccnn3)C2)c(F)c2[nH]c(C(=O)N3CCN(c4nnccc4OC)CC3)cc12 [Example I-467] | > 7.00
36 | COc1cc(F)cnc1N1CCN(C(=O)c2cc3c(-c4cnc5ccccc5c4OC)cc(C4=CCCN(C(=O)CCn5ccnn5)C4)c(F)c3[nH]2)CC1 [Example I-468] | > 7.00
37 | COc1nc(N2CCN(C(=O)c3cc4c(-c5cnc6ccccc6c5OC)cc(C5=CCCN(C(=O)CCn6ccnn6)C5)c(F)c4[nH]3)CC2)ccc1F [Example I-469] | 6.00 to 7.00
38 | CCOc1ccncc1-c1cc(C2=CCCN(C(=O)CCn3ccnn3)C2)c(F)c2[nH]c(C(=O)N3CCN(c4cncnc4OC)CC3)cc12 [Example I-470] | > 7.00
39 | CCc1ccncc1-c1cc(C2=CCCN(C(=O)CCn3ccnn3)C2)c(F)c2[nH]c(C(=O)N3CCN(c4ccccc4OC)CC3)cc12 [Example I-471] | > 7.00
40 | CCc1ccncc1-c1cc(C2=CCCN(C(=O)CCn3ccnn3)C2)c(F)c2[nH]c(C(=O)N3CCN(c4ncc(Cl)cc4OC)CC3)cc12 [Example I-472] | > 7.00
41 | CCc1ccncc1-c1cc(C2=CCCN(C(=O)CCn3ccnn3)C2)c(F)c2[nH]c(C(=O)N3CCN(C4CC4)CC3)cc12 [Example I-473] | > 7.00
42 | COc1ccncc1-c1cc(C2=CCCN(C(=O)CCn3ccnn3)C2)c(F)c2[nH]c(C(=O)N3CCN(c4ccc(C#N)cc4OC)CC3)cc12 [Example I-474] | > 7.00
43 | CCc1ccncc1-c1cc(C2=CCCN(C(=O)CCn3ccnn3)C2)c(F)c2[nH]c(C(=O)N3CCN(c4ncc(F)cc4OC)CC3)cc12 [Example I-476] | > 7.00
44 | O=C(CCn1ccnn1)N1CCC=C(c2cc(-c3ccccc3OC3CC3)c3cc(C(=O)N4CCN(c5ncccc5OC5CC5)CC4)[nH]c3c2F)C1 [Example I-477] | > 7.00
45 | CCOc1ccncc1-c1cc(C2=CCCN(C(=O)CCn3ccnn3)C2)c(F)c2[nH]c(C(=O)N3CCN(c4nccnc4OC)CC3)cc12 [Example I-478] | > 7.00
46 | CCc1ccncc1-c1cc(C2=CCCN(C(=O)CCn3ccnn3)C2)c(F)c2[nH]c(C(=O)N3CCN(c4ncccc4OC4CC4)CC3)cc12 [Example I-479] | > 7.00
47 | CCc1ccncc1-c1cc(C2=CCCN(C(=O)CCn3ccnn3)C2)c(F)c2[nH]c(C(=O)N3CCN(c4cccc(OC)n4)CC3)cc12 [Example I-480] | > 7.00
48 | COc1ccncc1-c1cc(C2=CCCN(C(=O)CCn3ccnn3)C2)c(F)c2[nH]c(C(=O)N3CCN(c4ccc(C5CC5)cc4OC)CC3)cc12 [Example I-481] | > 7.00
49 | COc1ccncc1-c1cc(C2=CCCN(C(=O)CCn3ccnn3)C2)c(F)c2[nH]c(C(=O)N3CCN(c4ccc(F)cc4OC)CC3)cc12 [Example I-482] | > 7.00
50 | CCOc1ccncc1-c1cc(C2=CCCN(C(=O)CCn3ccnn3)C2)c(F)c2[nH]c(C(=O)N3CCN(c4ccnnc4OC)CC3)cc12 [Example I-483] | > 7.00
51 | CCc1cnccc1-c1cc(C2=CCCN(C(=O)CCn3ccnn3)C2)c(F)c2[nH]c(C(=O)N3CCN(c4ncc(OC)cc4OC)CC3)cc12 [Example I-484] | < 4.00
52 | COc1ccncc1-c1cc(C2=CCCN(C(=O)CCn3ccnn3)C2)c(F)c2[nH]c(C(=O)N3CCN(c4cc5cc[nH]c5nc4C#N)CC3)cc12 [Example I-485] | > 7.00
53 | CCOc1ccncc1-c1cc(C2=CCCN(C(=O)CCn3cccn3)C2)c(F)c2[nH]c(C(=O)N3CCN(c4cncnc4OC)CC3)cc12 [Example I-486] | > 7.00
54 | COc1ccccc1-c1cc(C2=CCCN(C(=O)CCn3ccnn3)C2)c(F)c2[nH]c(C(=O)N3CCN(c4nc(OC(F)F)ccc4OC)CC3)cc12 [Example I-490] | < 4.00
55 | COc1ccncc1-c1cc(C2=CCCN(C(=O)CCn3ccnn3)C2)c(F)c2[nH]c(C(=O)N3CCN(c4nc(Cl)ccc4OC)CC3)cc12 [Example I-491] | < 4.00
